Assays:
[1] = system: HCT116; assay: MTS cell viability assay, HCT116; assay type: cell-based; settings: Homo sapiens, HCT-116; 72 h, Wnt/β-catenin hyperactive, mean ± SD (n = 3)
Procedure: (§1) MTS Cell Growth Inhibition Experiments. Colorectal cancer cells (SW480 and HCT116) and triple negative breast cancer cells (MDA-MB-231 and MDA-MB-468) were seeded in 96-well plates at 5×10^3 cells/well in DMEM with 10% FCS, maintained overnight at 37° C., and incubated with the tested compounds at various concentrations. Human mammary epithelial cell MCF10A were seeded in 96-well plates at 1×10^4 cells/well in MEGM (CC-3150, Lonza) with 100 ng/mL cholera toxin, maintained overnight at 37° C., and incubated with the tested compounds at various concentrations. Cell viability was monitored after 72 h using a freshly prepared mixture of 1 part phenazine methosulfate (PMS, Sigma) solution (0.92 mg/mL) and 19 parts 3-(4,5-dimethylthiazol-2-yl)-5-(3-carboxymethoxyphenyl)-2-(4-sulfophenyl)-2H-tetrazolium (MTS, Promega) solution (2 mg/mL). Cells were incubated in 10 μL of this solution at 37° C. for 3 h, and A490 was measured. […] Experiments were performed in triplicate.

[2] = system: Wnt/β-catenin signaling (TOPFlash luciferase reporter); assay: TOPFlash luciferase reporter assay in SW480 cells; assay type: cell-based; settings: Homo sapiens, 24 h
Procedure: (§2) The suppressing effect of the inhibitors on transactivation of Wnt/β-catenin signaling was evaluated by the TOPFlash/FOPFlash luciferase reporter assay. In the TOPFlash assay, the luciferase reporter has three wild-type Tcf4 binding sites, while in the FOPFlash assay Tcf4 binding sites were mutated. These tandem Tcf binding sites controls the expression ratio of the firefly luciferase in TOPFlash/FOPFlash assays. The renilla luciferase reporter construct (pCMV-RL) was used as the internal control to normalize luciferase reporter signals and eliminate any possible systematic errors. […] This selectivity trend is consistent with that from MTS cell viability assays. Therefore, further cell-based studies were focused on compound 30.
(§3) Cell Transfection and Luciferase Assay. FuGENE6 (E269A, Promega) 96 well plate format was used for the transfection of SW480 cells according to the manufacturer's instruction. SW480 cells were co-transfected with 60 ng the TOPFlash or FOPFlash firefly luciferase reporter gene and 40 ng renilla luciferase pCMV-RL normalization reporter gene. Cells were cultured in DMEM and 10% FBS at 37° C. for 24 h, and different concentrations of inhibitors or DMSO was added. After 24 h, the luciferase reporter activity was measured using the Dual-Glo system (E2940, Promega). […]

[3] = system: Axin2, cyclin D1 and LEF1 mRNA; assay: qPCR of Wnt target genes in SW480 cells; assay type: cell-based, human; settings: 24 h, HPRT spared
Procedure: Quantitative Real Time PCR analysis. SW480 cells at 1×10^6 cells/mL were treated with inhibitors at different concentrations for 24 h. MDA-MB-231 cells at 1×10^6 cells/mL were treated with 100 ng/mL recombinant Wnt 3a (rmW3aL-010, Time BioScience) for 30 min, then the inhibitors at different concentration were added and incubated for 24 h. Total RNAs were extracted with TRIzol (15596026, Life Technologies), and the cDNA was synthesized with the superscript III first-strand kit (18080-051, Invitrogen). qPCR experiments were performed using the iQTM SYBR green supermix kit (170-8880, BIO-RAD) on an CFX96 Real Time System (BIO-RAD). The threshold cycle (CT) values were normalized to that of internal reference GAPDH. Experiments were performed in triplicate. The primer pairs are shown below

[4] = system: β-catenin/BCL9 PPI; assay: Co-immunoprecipitation in HCT116 cells, β-catenin/BCL9; assay type: cell-based; settings: 24 h, full-length proteins
Procedure: (§4) C0-Immunoprecipitation (C0-IP) Experiments. HCT116 cancer cells with hyperactive 8-catenin signaling at 1×10^6 cells/mL were treated with different concentrations of the inhibitor for 24 h. Cells were then lysed in buffer containing 50 mM Tris, pH 7.4, 150 mM NaCl, 1% Nonidet P-40, 2 mM EDTA, and protease inhibitors. The cell lysates were pre-adsorbed to A/G plus agarose (sc-2003, Santa Cruz Biotechnology) at 4° C. for 1 h. Pre-adsorbed lysates were incubated with a specific primary antibody against β-catenin (610153, BD Biosciences) overnight at 4° C. A/G plus agarose was then added to the lysate mixture and incubated for 3 h. The beads were washed four times with the lysis buffer at 4° C. The bound protein was eluted by boiling in the SDS sample buffer and loaded onto 8% SDS polyacrylamide gel for electrophoretic analysis. Separated proteins were transferred onto nitrocellulose membranes for immunoblot analysis. The antibodies against BCL9 (ab37305, Abcam) and E-cadherin (610404, BD Biosciences), were incubated with the membranes, respectively. IRDye 680LT goat anti mouse IgG (827-11080, LiCOR) and IRDye 800CW goat anti rabbit IgG (926-32211, LiCOR) were used as the secondary antibodies. The images were detected by the Odyssey Infrared Imaging System (LiCOR). Experiments were performed in triplicate.

[5] = system: MDA-MB-468; assay: MTS cell viability assay, MDA-MB-468; assay type: cell-based; settings: Homo sapiens, 72 h, Wnt/β-catenin hyperactive, mean ± SD (n = 3)
Procedure: as §1

[6] = system: β-catenin/E-cadherin PPI; assay: Co-immunoprecipitation in HCT116 cells, β-catenin/E-cadherin; assay type: cell-based; settings: concentrations sufficient to disrupt β-catenin/BCL9
Procedure: as §4

[7] = system: MCF10A; assay: MTS cell viability assay, MCF10A; assay type: cell-based, human; settings: Homo sapiens, MCF-10A; 72 h, Wnt/β-catenin normal, mean ± SD (n = 3)
Procedure: as §1

[8] = system: FOPFlash luciferase reporter (mutated Tcf4 binding sites); assay: FOPFlash luciferase reporter assay in SW480 cells; assay type: cell-based; settings: same concentration range as TOPFlash
Procedure: as §2, §3

[9] = system: Axin2 and cyclin D1 protein expression; assay: Western blot of Wnt target genes in SW480 cells; assay type: cell-based; settings: 24 h
Procedure: Western Blotting of Wnt Target Genes. SW480 cells at 1×10^6 cells/mL were treated with different concentrations of inhibitors for 24 h. Cells were lysed in buffer containing 50 mM Tris, pH 7.4, 150 mM NaCl, 1% Nonidet P-40, 2 mM EDTA, and protease inhibitors. After centrifugation at 12,000 rpm for 20 min at 4° C., the supernatant was loaded onto an 8% SDS polyacrylamide gel for electrophoretic analysis. Separated proteins were transferred onto nitrocellulose membranes for immunoblot analysis. The antibodies against Axin2 (MA5-15015, Thermo Fisher), cyclin D1 (sc-853, Santa Cruz Biotechnology), and β-tubulin (sc-55529, Santa Cruz Biotechnology) were incubated with the membranes overnight at 4° C., respectively. IRDye 680LT goat anti-mouse IgG (827-11080, LiCOR) or IRDye 800CW goat anti-rabbit IgG (827-08365, LiCOR) was used as the secondary antibody. The images were detected by the Odyssey Infrared Imaging System (Odyssey Fc, LiCOR). Experiments were performed in duplicate.

SMILES: CC(C)(Oc1cccc(N2CCC[C@H](C(=O)N(Cc3ccc(-c4cccs4)cc3)C3CC3)C2)c1)C(=O)NS(=O)(=O)c1ccc(C#N)cc1 [Compound 30, (S)-((4-Cyanophenyl)sulfonyl) (2-(3-(3-(cyclopropyl(4-(thiophen-2-yl)benzyl)carbamoyl)piperidin-1-yl)phenoxy)-2-methylpropanoyl)amide]
- IC50 [1]: 29.6 ± 1.02 µM
- IC50 [2]: 6.6 µM
- transcription of Wnt target genes Axin2, cyclin D1, LEF1 (qPCR) [3]: dose-dependently inhibited transcription of these Wnt target genes
- disruption of β-catenin/BCL9 PPI in cells (co-IP) [4]: disrupted the β-catenin/BCL9 PPI in a dose-dependent manner
- IC50 [5]: 17.8 ± 1.01 µM
- effect on β-catenin/E-cadherin PPI in cells (co-IP) [6]: did not affect the β-catenin/E-cadherin PPI
- IC50 [7]: 139 ± 3.16 µM
- effect on FOPFlash luciferase reporter activity [8]: did not show any inhibitory effect
- protein expression levels of Axin2 and cyclin D1 (Western blot) [9]: dose-dependently decreased
